19 molecules from US11407736B2 (priority 2019, dated 2022) can be followed below.

Where a name gives a salt, the structure may show the parent alone. Read-outs that look alike come from different tables or passages of the source.

In test [1] the test system is U937 cells. As to the kind of experiment: U937 cell necroptosis assay (TNFa + zVAD, CellTiter-Glo). In kind it is cell-based, human. An outline of the steps:
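Necroptosis was induced with TNFa at 2 ng/mL final for 18 h at 37 °C, following 1 h compound pre-incubation in the presence of zVAD-fmk (60 uM for U937 plating medium, 40 uM for L929 medium). Luminescent CellTiter-Glo signal gave relative cell survival.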
(In general: Cellular ATP, detected with luciferase, serves as a proxy for viable cell number.)

In test [2] the target is RIPK1 (Homo sapiens (Human), UniProt Q13546). The test can be described thus: RIPK1 ADP-Glo biochemical kinase assay. The procedure: The final reaction volume was 5.0ul.
Sequence of RIPK1 (Q13546 whole entry, species assumed): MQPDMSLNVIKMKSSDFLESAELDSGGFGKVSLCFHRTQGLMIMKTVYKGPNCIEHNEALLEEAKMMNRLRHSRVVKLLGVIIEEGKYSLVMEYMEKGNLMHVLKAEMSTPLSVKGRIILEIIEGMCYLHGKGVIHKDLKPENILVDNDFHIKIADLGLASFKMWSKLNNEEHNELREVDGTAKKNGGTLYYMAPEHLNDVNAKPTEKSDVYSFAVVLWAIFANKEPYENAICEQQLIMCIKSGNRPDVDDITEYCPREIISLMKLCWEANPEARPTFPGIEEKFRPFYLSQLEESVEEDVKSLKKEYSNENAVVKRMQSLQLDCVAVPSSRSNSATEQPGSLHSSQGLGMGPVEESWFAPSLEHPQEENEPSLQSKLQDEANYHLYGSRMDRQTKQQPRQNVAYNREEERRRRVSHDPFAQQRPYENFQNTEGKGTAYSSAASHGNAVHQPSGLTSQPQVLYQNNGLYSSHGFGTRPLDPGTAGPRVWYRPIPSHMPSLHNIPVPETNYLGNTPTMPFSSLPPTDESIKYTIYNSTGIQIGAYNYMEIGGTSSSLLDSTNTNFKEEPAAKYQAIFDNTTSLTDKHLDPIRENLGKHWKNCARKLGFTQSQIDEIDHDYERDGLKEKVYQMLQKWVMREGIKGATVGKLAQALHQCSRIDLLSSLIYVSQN
Adding 5 μl of ADP-Glo™ terminated the reaction.

The subject of test [3] is L929 cells. The test can be described thus: L929 cell necroptosis assay (TNFa + zVAD, CellTiter-Glo). The test is classed as cell-based, murine. The procedure, abridged: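 Necroptosis was read as CellTiter-Glo luminescence 18 hours after TNFa stimulation at 37° C, 5% CO2. Prior to that, L929 cells (10K/well, plated 18 h) received fresh medium with 40 uM zVAD-fmk plus 4-fold serially diluted compound.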

The mark [4] stands for this setting: Homo sapiens, U-937, U937 cells, TNFa + zVAD, read-out: U937 Zvad TNF CTG Recovery, U937, TNFa + zVAD (IC50).
[5] abbreviates: read-out: RIPK1 ADP-Glo Kinase (IC50).
Where [6] appears, read: Mus musculus, L929, L929 cells, TNFa + zVAD, read-out: L929-CTG-recovery, L929, TNFa + zVAD (IC50).
[7] abbreviates: U937 cells, TNFa + zVAD, read-out: U937 Zvad TNF CTG Recovery, U937, TNFa + zVAD (IC50).
Setting [8] is: L929 cells, TNFa + zVAD, read-out: L929-CTG-recovery, L929, TNFa + zVAD (IC50).
Setting [9] is: Mus musculus, L929 cells, TNFa + zVAD, read-out: L929-CTG-recovery, L929, TNFa + zVAD (IC50).

Usually IC50 stands for the point on the concentration scale where inhibition reaches its midpoint. For the molecule `CN1C(=O)[C@@H](NC(=O)c2ncn(Cc3ccccc3)n2)COc2ccc(CN3CCn4nc(C(F)(F)F)nc4C3)cc21` [Compound I-39, (S)-1-benzyl-N-(5-methyl-4-oxo-7-((2-(trifluoromethyl)-5,6-dihydro-[1,2,4]triazolo[1,5-a]pyrazin-7(8H)-yl)methyl)-2,3,4,5-tetrahydrobenzo[b][1,4]oxazepin-3-yl)-1H-1,2,4-triazole-3-carboxamide], the half-maximal inhibitory concentration (IC50) amounted to 2.7 nM in test [1] (setting [4]), 36.4 nM in test [2] (setting [5]) and 0.4 nM in test [3] (setting [6]).
On to `COc1ccc(-c2ccnc(C(=O)N[C@H]3COc4ccc(C#CC(C)(C)O)cc4N(C)C3=O)c2)cc1` [II-22, (S)—N-(7-(3-hydroxy-3-methylbut-1-yn-1-yl)-5-methyl-4-oxo-2,3,4,5-tetrahydrobenzo[b][1,4]oxazepin-3-yl)-4-(4-methoxyphenyl)picolinamide], for which the half-maximal inhibitory concentration (IC50) is 580 nM in test [1] (Homo sapiens, U-937, read-out: U937 Zvad TNF CTG Recovery, U937, TNFa + zVAD (IC50), U937 cells, TNFa + zVAD); 310 nM in test [2] (setting [5]); 56000 nM in test [3] (Mus musculus, L929, read-out: L929-CTG-recovery, L929, TNFa + zVAD (IC50), L929 cells, TNFa + zVAD).
Turning to `CN1C(=O)[C@@H](NC(=O)c2n[nH]c(Cc3ccccc3)n2)COc2ccc(CN3CCn4ncnc4C3)cc21` [Compound I-24, (S)-5-benzyl-N-(7-((5,6-dihydro-[1,2,4]triazolo[1,5-a]pyrazin-7(8H)-yl)methyl)-5-methyl-4-oxo-2,3,4,5-tetrahydrobenzo[b][1,4]oxazepin-3-yl)-1H-1,2,4-triazole-3-carboxamide], the IC50 in test [1] (setting [4]) stood at 3.6 nM; in test [2] (setting [5]), 59.2 nM; in test [3] (setting [6]), 4610 nM.
Regarding `CN1C(=O)[C@@H](NC(=O)c2cc(Oc3ccccc3)ccn2)COc2ccc(C#CC3(F)COC3)cc21` [Compound I-129, (S)—N-(7-((3-fluorooxetan-3-yl)ethynyl)-5-methyl-4-oxo-2,3,4,5-tetrahydrobenzo[b][1,4]oxazepin-3-yl)-4-phenoxypicolinamide], the values for the half-maximal inhibitory concentration (IC50) in test [1] (setting [4]), in test [2] (setting [5]) and in test [3] (setting [6]) were 0.7 nM, 35.2 nM and 24.1 nM, respectively.
In the same order, the values of `CN1C(=O)[C@@H](NC(=O)c2cc(Oc3ccccc3)ccn2)COc2cc(C#CC(C)(C)O)ccc21` [Compound I-64, (S)—N-(8-(3-hydroxy-3-methylbut-1-yn-1-yl)-5-methyl-4-oxo-2,3,4,5-tetrahydrobenzo[b][1,4]oxazepin-3-yl)-4-phenoxypicolinamide] are 0.5 nM, 19 nM and 0.1 nM.
For the molecule `CC(C)[C@H](N)C(=O)OC1(C#Cc2ccc3c(c2)N(C)C(=O)[C@@H](NC(=O)c2cc(Oc4ccccc4)ccn2)CO3)COC1` [Compound I-164, 3-4(S)-5-methyl-4-oxo-3-(4-phenoxypicolinamido)-2,3,4,5-tetrahydrobenzo[b][1,4]oxazepin-7-yl)ethynyl)oxetan-3-yl L-valinate benzenesulfonic acid salt], the concentration for half-maximal inhibition (IC50) in test [1] (setting [7]) amounted to 0.7 nM; in test [2] (setting [5]), 71.7 nM; in test [3] (setting [8]), 31.9 nM.
Regarding `CN1C(=O)[C@@H](NC(=O)n2cc(Cc3ccc(F)cc3F)cn2)COc2ccc(C#CC(C)(C)CN)cc21` [Compound I-241, (S)—N-(7-(4-Amino-3,3-dimethylbut-1-yn-1-yl)-5-methyl-4-oxo-2,3,4,5-tetrahydrobenzo[b][1,4]oxazepin-3-yl)-4-(2,4-difluorobenzyl)-1H-pyrazole-1-carboxamide hydrochloride], the half-maximal inhibitory concentration (IC50) in test [1] (setting [4]) came to 62.6 nM; in test [2], 50.1 nM; in test [3] (setting [6]), 2100 nM.
Take `CN1C(=O)[C@@H](NC(=O)c2n[nH]c(Cc3ccccc3)n2)COc2ccc(C#CC3(O)CCCC3)cc21` [Compound I-53, (S)-5-benzyl-N-(7-((1-hydroxycyclopentyl)ethynyl)-5-methyl-4-oxo-2,3,4,5-tetrahydrobenzo[b][1,4]oxazepin-3-yl)-1H-1,2,4-triazole-3-carboxamide]: the concentration for half-maximal inhibition (IC50) turned out to be 1.8 nM in test [1] (setting [4]), 34 nM in test [2] (setting [5]) and 0.5 nM in test [3] (setting [6]).
On to `CN1C(=O)[C@@H](NC(=O)c2ncn(Cc3ccccc3)n2)COc2ccc(CCC(=O)NC3CC3)cc21` [Compound I-26, (S)-1-benzyl-N-(7-(3-(cyclopropylamino)-3-oxopropyl)-5-methyl-4-oxo-2,3,4,5-tetrahydrobenzo[b][1,4]oxazepin-3-yl)-1H-1,2,4-triazole-3-carboxamide], for which the IC50 in test [1] (setting [4]) worked out at 4.4 nM; in test [2] (setting [5]), 65.6 nM; in test [3] (setting [6]), 613 nM.
Turning to `CN1C(=O)[C@@H](NC(=O)c2n[nH]c(Cc3ccccc3)n2)COc2ccc(C#CC(C)(C)O)cc21` [Compound I-36, (S)-5-benzyl-3-((7-(3-hydroxy-3-methylbut-1-yn-1-yl)-5-methyl-4-oxo-2,3,4,5-tetrahydrobenzo[b][1,4]oxazepin-3-yl)carbamoyl)-1,2,4-triazol-1-ide], the IC50 came out at 2.2 nM in test [1] (setting [7]), 33.8 nM in test [2] (setting [5]) and 1.4 nM in test [3] (setting [8]).
Turning to `C=C(C)C#Cc1ccc2c(c1)N(C)C(=O)[C@@H](NC(=O)c1n[nH]c(Cc3ccccc3)n1)CO2` [Compound I-59, (S)-5-benzyl-N-(5-methyl-7-(3-methylbut-3-en-1-yn-1-yl)-4-oxo-2,3,4,5-tetrahydrobenzo[b][1,4]oxazepin-3-yl)-1H-1,2,4-triazole-3-carboxamide], the figures for the half-maximal inhibitory concentration (IC50) in test [1] (setting [4]), in test [2] (setting [5]) and in test [3] (setting [6]) were 1.9 nM, 57.9 nM and 0.7 nM, respectively.
With `CN1C(=O)[C@@H](NC(=O)c2n[nH]c(Cc3ccccc3)n2)COc2ccc(C#CCCCO)cc21` [Compound I-35, (S)-5-benzyl-N-(7-(5-hydroxypent-1-yn-1-yl)-5-methyl-4-oxo-2,3,4,5-tetrahydrobenzo[b][1,4]oxazepin-3-yl)-1H-1,2,4-triazole-3-carboxamide], the half-maximal inhibitory concentration (IC50) in test [1] (setting [4]) came to 3.1 nM; in test [2] (setting [5]), 22.3 nM; in test [3] (setting [6]), 17.8 nM.
For `CN1C(=O)[C@@H](NC(=O)c2cc(Oc3ccccc3)ccn2)COc2ccc(C#CCO)cc21` [II-35, (S)—N-(7-(3-hydroxyprop-1-yn-1-yl)-5-methyl-4-oxo-2,3,4,5-tetrahydrobenzo[b][1,4]oxazepin-3-yl)-4-phenoxypicolinamide], the IC50 in test [1] (setting [4]) was found to be 0.7 nM; in test [2] (setting [5]), 27.5 nM; in test [3] (setting [6]), 164 nM.
As to `C[C@H](N)C(=O)OC1(C#Cc2ccc3c(c2)N(C)C(=O)[C@@H](NC(=O)c2cc(Oc4ccccc4)ccn2)CO3)COC1` [Compound I-194, 3-(((S)-5-methyl-4-oxo-3-(4-phenoxypicolinamido)-2,3,4,5-tetrahydrobenzo[b][1,4]oxazepin-7-yl)ethynyl)oxetan-3-yl L-alaninate trifluoroacetic acid salt], the IC50 was 0.6 nM in test [1] (setting [4]), 18.6 nM in test [2] (setting [5]) and 32.5 nM in test [3] (setting [9]).
Consider `CN1C(=O)[C@@H](NC(=O)c2cc(Oc3ccccc3)ccn2)COc2ccc(N3CCC4(CCOCC4)C3)cc21` [II-31, (S)—N-(5-methyl-4-oxo-7-(8-oxa-2-azaspiro[4.5]decan-2-yl)-2,3,4,5-tetrahydrobenzo[b][1,4]oxazepin-3-yl)-4-phenoxypicolinamide], for which the concentration for half-maximal inhibition (IC50) in test [1] (setting [4]) stood at 8 nM; in test [2] (setting [5]) it was 36.3 nM; in test [3] (setting [9]) it was 654 nM.
For the molecule `CN1C(=O)[C@@H](NC(=O)c2n[nH]c(Cc3ccccc3)n2)COc2ccc(C#Cc3ccc4c(c3)CNCC4)cc21` [Compound I-88, (S)-5-benzyl-N-(5-methyl-4-oxo-7-((1,2,3,4-tetrahydroisoquinolin-7-yl)ethynyl)-2,3,4,5-tetrahydrobenzo[b][1,4]oxazepin-3-yl)-1H-1,2,4-triazole-3-carboxamide], the IC50 in test [1] (setting [4]) is 0.7 nM; in test [2] (setting [5]), 73.8 nM; in test [3] (setting [6]), 0.0976 nM.
On to `Cc1cccc(C)c1Oc1ccnc(C(=O)N[C@H]2COc3ccc(C#CC(C)(C)O)cc3N(C)C2=O)c1` [Compound I-124, (S)-4-(2,6-dimethylphenoxy)-N-(7-(3-hydroxy-3-methylbut-1-yn-1-yl)-5-methyl-4-oxo-2,3,4,5-tetrahydrobenzo[b][1,4]oxazepin-3-yl)picolinamide], for which the results for the half-maximal inhibitory concentration (IC50) in test [1] (setting [4]), in test [2] (setting [5]) and in test [3] (setting [6]) were 88.7 nM, 93.5 nM and 2120 nM, respectively.
For the molecule `CN1C(=O)[C@@H](NC(=O)c2n[nH]c(Cc3cccc(F)c3)n2)COc2ccc(C#CC(C)(C)O)cc21` [Compound I-78, (S)-5-(3-fluorobenzyl)-N-(7-(3-hydroxy-3-methylbut-1-yn-1-yl)-5-methyl-4-oxo-2,3,4,5-tetrahydrobenzo[b][1,4]oxazepin-3-yl)-1H-1,2,4-triazole-3-carboxamide], the half-inhibitory concentration (IC50) worked out at 2.5 nM in test [1] (setting [4]), 33.4 nM in test [2] (setting [5]) and 0.9 nM in test [3] (setting [6]).
With `CN[C@@H](C)C(=O)OC1(C#Cc2ccc3c(c2)N(C)C(=O)[C@@H](NC(=O)c2cc(Oc4ccccc4)ccn2)CO3)COC1` [Compound I-193], the IC50 in test [1] (setting [7]) came out at 361 nM; in test [2] (setting [5]), 55.3 nM; in test [3] (setting [8]), 7060 nM.
